According to PubChem BioAssay (NCI):
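Results reflect a 48-hour exposure of cells in 96-well plates to compound at five concentrations. GI50 marks 50% less growth. Definition used: TGI = concentration required for complete inhibition of growth.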

Legend:
Test in all cases: NCI-60 cell line screen, 48 h
CCRF-CEM leukemia = tested on: CCRF-CEM leukemia
ACHN renal = tested on: ACHN renal
NCI-H460 lung = tested on: NCI-H460 lung
SK-MEL-5 melanoma = tested on: SK-MEL-5 melanoma
SNB-19 CNS = tested on: SNB-19 CNS
HOP-62 NSCLC = tested on: HOP-62 NSCLC
NCI/ADR-RES ovarian = tested on: NCI/ADR-RES ovarian
UO-31 renal = tested on: UO-31 renal
SF-268 CNS = tested on: SF-268 CNS
A549 NSCLC = tested on: A549 NSCLC

Row | SMILES | TGI (CCRF-CEM leukemia) | TGI (ACHN renal) | TGI (NCI-H460 lung) | TGI (SK-MEL-5 melanoma) | TGI (SNB-19 CNS) | TGI (HOP-62 NSCLC) | TGI (NCI/ADR-RES ovarian) | TGI (UO-31 renal) | TGI (SF-268 CNS) | TGI (A549 NSCLC) | GI50 (CCRF-CEM leukemia) | GI50 (ACHN renal) | GI50 (NCI-H460 lung) | GI50 (SK-MEL-5 melanoma) | GI50 (SNB-19 CNS) | GI50 (HOP-62 NSCLC) | GI50 (NCI/ADR-RES ovarian) | GI50 (UO-31 renal) | GI50 (SF-268 CNS) | GI50 (A549 NSCLC)
1 | O=C(Oc1ccc2c(c1)CN(Cc1ccccc1)CO2)c1ccccc1 | > 100 µM | 32.9 µM | 36.1 µM | 31.1 µM | 34.1 µM | 38.6 µM | 59.3 µM | 31.8 µM | 33 µM | 40.6 µM | – | – | – | – | – | – | – | – | – | –
2 | CC1=C(CNO)C2=C(C)C3(CC3)[C@@](C)(O)C(=O)C2=C1 | 60.6 µM | 7.6 µM | 3.87 µM | 3.22 µM | 25.5 µM | 4.57 µM | 7.63 µM | 5.87 µM | 9.89 µM | 17.6 µM | 6.6 µM | 2.25 µM | 0.358 µM | 1.68 µM | 1.81 µM | 0.61 µM | 2.32 µM | 1.83 µM | 0.766 µM | 1.17 µM
3 | COc1ccc(/C=C\c2cc(OC)c(OC)c(OC)c2)c(NS(=O)(=O)c2ccc(C(C)(C)C)cc2)c1O | 35.8 µM | 23.5 µM | 11 µM | 1.83 µM | 26.6 µM | 70.3 µM | 19.6 µM | 21.6 µM | 41.2 µM | 33 µM | 0.468 µM | 0.452 µM | 0.375 µM | 0.345 µM | 0.56 µM | 10.1 µM | 0.309 µM | 0.982 µM | 1.71 µM | 0.626 µM
4 | CNCc1cccc2c1OCCOCCOCCC(C)S(=O)(=O)c1ccc(cc1)-c1cnc(N)c(n1)C(=O)N2 (stereo not drawn) | 7.2 µM | 2.82 µM | 2.73 µM | 4.58 µM | 5.52 µM | 4.82 µM | 29.1 µM | 2.09 µM | 3.33 µM | 6.83 µM | 0.67 µM | 1.3 µM | 1.12 µM | 2.05 µM | 2.5 µM | 1.14 µM | 5.31 µM | 0.623 µM | 1.18 µM | 1.09 µM
5 | C#Cc1cccc(NC(=O)C2CCCN(C(=O)CCl)C2)c1 (stereo not drawn) | 64.4 µM | 31.6 µM | > 82.5 µM | > 82.5 µM | > 82.5 µM | > 82.5 µM | > 82.5 µM | 26.4 µM | > 82.5 µM | > 82.5 µM | 21.7 µM | 16.1 µM | > 82.5 µM | 29.7 µM | > 82.5 µM | > 82.5 µM | > 82.5 µM | 12.9 µM | > 82.5 µM | > 82.5 µM
6 | COC(=O)C(=O)C(C(=O)C(=O)Nc1ccc(C)c(C)c1)c1nc2ccc([N+](=O)[O-])cc2[nH]c1=O (stereo not drawn) | > 100 µM | > 100 µM | > 100 µM | > 100 µM | > 100 µM | > 100 µM | > 100 µM | > 100 µM | > 100 µM | > 100 µM | – | – | – | – | – | – | – | – | – | –
7 | NC(N)=N/N=C(/c1ccccc1)c1ccccc1F | > 100 µM | 20 µM | 10.4 µM | 12.5 µM | 31.3 µM | 18.2 µM | 9.74 µM | 31.6 µM | 26.9 µM | 36.8 µM | 5.08 µM | 4.49 µM | 2.31 µM | 0.911 µM | 4.19 µM | 4.62 µM | 2.69 µM | 4.48 µM | 5.48 µM | 4.51 µM
8 | COc1cc2cc3c(c(O)c2c(O)c1-c1c(OC)cc2cc4c(c(O)c2c1O)C(=O)O[C@H](C)C4)C(=O)O[C@H](C)C3 | 67.7 µM | 66.7 µM | 56.8 µM | 39.1 µM | 99.2 µM | 62.7 µM | > 100 µM | > 100 µM | 37.9 µM | > 100 µM | 25.3 µM | 24.7 µM | 16.8 µM | 21.8 µM | 32.3 µM | 26.9 µM | 37.2 µM | > 100 µM | 14.1 µM | 39.3 µM
9 | c1cncc(C2ONC3=NCCN32)c1 (stereo not drawn) | 56.6 µM | 38.3 µM | > 100 µM | > 100 µM | > 100 µM | 91.1 µM | 80.4 µM | > 100 µM | > 100 µM | > 100 µM | 21 µM | 8 µM | 31 µM | 23.6 µM | 69.7 µM | 30 µM | 22.1 µM | 2.27 µM | 21.7 µM | 40.5 µM
10 | Fc1ccc(-c2nn3c(COc4ccc(Cl)cc4)nnc3s2)cc1Oc1ccccc1 | 74.4 µM | > 53.1 µM | > 54.5 µM | 41.5 µM | > 58.5 µM | 35.6 µM | 95.5 µM | > 100 µM | 54.1 µM | > 100 µM | 22.4 µM | 31.4 µM | 23.9 µM | 18.2 µM | 30.2 µM | 16.6 µM | 30.5 µM | 24.4 µM | 20 µM | 21.9 µM
11 | OCCCCC#Cc1ccccc1C#Cc1ccc(C(F)(F)F)cc1 | 44.1 µM | 31.2 µM | 60.3 µM | 33.3 µM | 32.3 µM | 24.3 µM | 30.7 µM | 30.3 µM | 48 µM | 27.6 µM | 19.6 µM | 17.5 µM | 23.3 µM | 17.8 µM | 17.3 µM | 11.4 µM | 15 µM | 16.3 µM | 22 µM | 14.3 µM
12 | N#CCC1(n2cc(-c3ncnc4[nH]ccc34)cn2)CN(C2CCN(C(=O)c3ccnc(C(F)(F)F)c3F)CC2)C1 | > 100 µM | > 100 µM | > 100 µM | > 100 µM | > 100 µM | > 100 µM | > 100 µM | > 100 µM | > 100 µM | > 100 µM | 54.5 µM | > 100 µM | > 100 µM | 65.3 µM | > 100 µM | > 100 µM | > 100 µM | 49.2 µM | > 100 µM | > 100 µM
13 | N/C(=N\C(N)=N\c1nc2ccccc2s1)c1cnccn1 | > 100 µM | 6.6 µM | > 100 µM | 5.89 µM | 41.6 µM | 16.1 µM | > 100 µM | 4.87 µM | > 100 µM | – | 3.59 µM | 2.51 µM | 3.59 µM | 2.29 µM | 3.57 µM | 2.92 µM | 4.28 µM | 2.05 µM | 4.74 µM | –
